Data on two compounds can be found in patent publication US20230310395A1, “TOPICAL ROFLUMILAST COMPOSITIONS AND USES THEREOF” (Sol-Gel Technologies Ltd., priority 2020, published 2023).

The conditions of data set [1]: according to the roflumilast DrugBank monograph; cited from earlier work.
Data set [2] deals with psoriasis-induced xenotransplants (human skin grafted on beige-SCID mice, injected with PBMC's from psoriatic patients). Briefly: Efficacy study in psoriasis-induced human skin xenotransplants on beige-SCID mice, histological evaluation. The data set is classed as in vivo. To be noted: topical treatment for 14 days (Day 42-56), histology at Day 56. An excerpt:
The objective of this study was to determine the efficacy of Roflumilast as provided herein (at Examples 4 and 5) compared to the vehicle and Dexamethasone as shown at the Table 3. The evaluation was based on histology analysis following application of the respective test formulations.
The efficacy study has been conducted on female mice. The total duration of the experiment was 8 weeks, upon receiving of the human skin. Normal skin from healthy volunteers were obtained for grafting. Healthy human abdominal skin pieces with a width of 0.4 mm and surface area of 1.5×1.5 cm were provided. The skin sample was preserved in isotonic saline solution and transplanted within 6-12 hours after skin donation. In addition, blood samples were collected from psoriatic patients having classic plaque psoriasis and not undergoing any treatment. 20 mL blood samples were taken from both males and females psoriatic patients (from psoriatic patients having classic plaque psoriasis and not undergoing any treatment), and peripheral blood mononuclear cells (PBMC) were separated immediately after blood withdrawal.
Mice: Beige-severe combined immunodeficient mice C.B-17/IcrHsdscid-bg (beige-SCID) mice (weight ˜25 g) were included in this study. Mice were monitored twice a week for vital signs such as weight, food intake, coat, eyes, anal genital areas, discharge/soiling, behavior and criteria related to skin transplantation. Normal healthy human donor skin were transplanted onto the beige-SCID mice as previously described (See Keren A. et al., Novel nanosome delivery system combined with siRNA targeting the antimicrobial gene DFB4: a new approach for psoriasis management? Exp Dermatol. 2014; 23:464-465; Bracke S. et al., Targeted silencing of DEFB4 in a bioengineered skin-humanized mouse model for psoriasis: development of siRNA SECosome-based novel therapies. Exp Dermatol. 2014 ;23:199-201; Zaretsky M. et al., Directed evolution of a soluble human IL-17A receptor for the inhibition of psoriasis plaque formation in a mouse model. Chem Biol. 2013 21; 20:202-2; Gilhar A. et al., The beneficial effect of blocking Kv1.3 in the psoriasiform SCID mouse model. J Invest Dermatol. 2011;131:118 124; Keren A. et al., Innate lymphoid cells 3 induce psoriasis in xenotransplanted healthy human skin. J Allergy Clin Immunol. 2018;142:305-308.e6.).
British Journal of Pharmacology 2010; 159:842-855).
Four weeks following the engraftment, each mouse was injected (intradermally) with 1×10^7 IL-2 enriched allogeneic PBMC's from psoriatic patients (1×10^7 cells injected/mouse). Cells from different psoriasis patients were equally distributed between treatment groups. Each patient was represented in each treatment group.
Fourteen days following cells injections, the mice were divided into treatment groups (Table 4, see below) and treated according to the timeline indicated below (see Scheme 1). Each transplant was equally topically treated (50 μg) by using a sterile spatula.
Dexamethasone (D2915, Sigma): was freshly prepared for each administration by dilution in saline to final concentration (50 mg/ml). Dexamethasone serves as a positive control and was administered topically twice daily for 14 days following cells injections (at Day 42 following human skin transplantation) until the end of the study (Day 56).
The vehicle was administered topically (50 μg) once daily for 14 days as well.
On Day 56, the entire skin graft was excised and placed in 10% formaldehyde in saline overnight. Then, the specimens were placed in 70% ethanol and embedded and stained according to the standard Hematoxylin/Eosin protocol.
Skin graft histological assessment was performed (according to the psoriatic criteria including epidermal thickness) using light microscopy, and two observers blindly performed the evaluations. Epidermal thickness was determined using an ocular micrometer at a minimum of 50 points along the epidermis selected to represent points of maximal and minimal thickness. […]

Setting [3] is: number of grafts/mice out of 10.

Regarding `O=C(Nc1c(Cl)cncc1Cl)c1ccc(OC(F)F)c(OCC2CC2)c1` [Roflumilast, 3-(cyclopropylmethoxy)-n-(3,5-dichloropyridin-4-yl)-4-(difluoromethoxy)-benzamide], the calculated water solubility in data set [1] was 6.2 µg/mL.

Consider `C[C@@H]1C[C@H]2[C@@H]3CCC4=CC(=O)C=C[C@]4(C)[C@@]3(F)[C@@H](O)C[C@]2(C)[C@@]1(O)C(=O)CO` [Dexamethasone], for which, in data set [2] (setting [3]), the “Complete Recovery” value was 9/10, the “Partial Recovery” value is reported as 1/10 and the “Psoriatic Features” value is listed as 0/10. Besides, in data set [2] (percent of grafts/mice), the “Complete Recovery (%)” value is on record as “(90%)”, the “Partial Recovery (%)” value is “(10%)” and the “Psoriatic Features (%)” value was “(0%)”.
